Measured values published in US20220175781A1, “CD40L COMPOSITIONS AND METHODS FOR TUNABLE REGULATION” (Obsidian Therapeutics, Inc., priority 2019, published 2022).
Where two headings read alike, the source gives them in different places.

Legend:
Jurkat cells [1] = conditions: Jurkat cells expressing OT-001662; for Off kinetics (CD40L surface expression, FACS): induced with TMP 50 μM
Description: Kinetics were tested using stably transduced Jurkat cells expressing OT-001662. To study the kinetics of turning on the expression of CD40L, cells were treated with TMP (5 or 50 μM) and fixed for FACS after: 0, 3, 6, 9, 24, 48 hours. At the end of the experiment all fixed were stained and analyzed via FACS in parallel. To study the kinetics of turning off expression, expression was first induced in Jurkat cells with 50 μM TMP. The cells were then washed to remove TMP and fixed after 0, 3, 6, 9, 24 hours, stained and analyzed via FACS in parallel.

T cells (CD4 and CD8) = assay: Cleavage resistant CD40L expression and TMP regulation in T cells; assay type: cell-based
Description: T cells were transduced with OT-001668 and on day 4, the percentage of CD40L expressing T cells (within the both CD4 and CD8) subpopulations was calculated.
T cells were transduced with ecDHFR regulated construct OT-001671 that include a CD40L protein that was resistant to cleavage. On day 4 cells were treated with 10 μM TMP for 24 hours. […] In an independent experiment, T cells transduced with varying volumes of virus corresponding to OT-001671 were treated with increasing doses of TMP for 24 hours. In Table 41, 0.5 μL, 2 μL, and 10 μL indicate the different volumes of virus that were used.

Jurkat cells [2] = assay: Linker length, ER regulated CD40L, % CD40L positive Jurkat cells; assay type: cell-based
Description: Jurkat cells were lentivirally transduced and 24 hours after transduction were treated with DMSO or 1 μM Bazedoxifene for another 24 hours and analyzed by flow cytometry for surface expression of CD40L. […] In Table 33, SR indicates stabilization ratio.

COc1cc(Cc2cnc(N)nc2N)cc(OC)c1OC [TMP]
On kinetics (CD40L surface expression, FACS) (Jurkat cells [1]; TMP 5 μM, 0 hours): 743
On kinetics (CD40L surface expression, FACS) (Jurkat cells [1]; TMP 5 μM, 3 hours): 886
On kinetics (CD40L surface expression, FACS) (Jurkat cells [1]; TMP 5 μM, 6 hours): 1096
On kinetics (CD40L surface expression, FACS) (Jurkat cells [1]; TMP 5 μM, 9 hours): 1392
On kinetics (CD40L surface expression, FACS) (Jurkat cells [1]; TMP 5 μM, 24 hours): 2435
On kinetics (CD40L surface expression, FACS) (Jurkat cells [1]; TMP 50 μM, 0 hours): 743
On kinetics (CD40L surface expression, FACS) (Jurkat cells [1]; TMP 50 μM, 3 hours): 890
On kinetics (CD40L surface expression, FACS) (Jurkat cells [1]; TMP 50 μM, 6 hours): 1180
On kinetics (CD40L surface expression, FACS) (Jurkat cells [1]; TMP 50 μM, 9 hours): 1466
On kinetics (CD40L surface expression, FACS) (Jurkat cells [1]; TMP 50 μM, 24 hours): 3952
Off kinetics (CD40L surface expression, FACS) (Jurkat cells [1]; 0 hours after wash): 3952
Off kinetics (CD40L surface expression, FACS) (Jurkat cells [1]; 3 hours after wash): 1631
Off kinetics (CD40L surface expression, FACS) (Jurkat cells [1]; 6 hours after wash): 1620
Off kinetics (CD40L surface expression, FACS) (Jurkat cells [1]; 9 hours after wash): 1037
Off kinetics (CD40L surface expression, FACS) (Jurkat cells [1]; 24 hours after wash): 1287
TMP dose response (percentage of CD40L positive cells) (T cells (CD4 and CD8); CD4+, 0.5 μL virus OT-001671, TMP 0.001 μM): 17.9%
TMP dose response (percentage of CD40L positive cells) (T cells (CD4 and CD8); CD4+, 0.5 μL virus OT-001671, TMP 0.01 μM): 18.8%
TMP dose response (percentage of CD40L positive cells) (T cells (CD4 and CD8); CD4+, 0.5 μL virus OT-001671, TMP 0.1 μM): 20.4%
TMP dose response (percentage of CD40L positive cells) (T cells (CD4 and CD8); CD4+, 0.5 μL virus OT-001671, TMP 1 μM): 20.3%
TMP dose response (percentage of CD40L positive cells) (T cells (CD4 and CD8); CD4+, 0.5 μL virus OT-001671, TMP 10 μM): 27.5%
TMP dose response (percentage of CD40L positive cells) (T cells (CD4 and CD8); CD4+, 2 μL virus OT-001671, TMP 0.001 μM): 11.8%
TMP dose response (percentage of CD40L positive cells) (T cells (CD4 and CD8); CD4+, 2 μL virus OT-001671, TMP 0.01 μM): 12.2%
TMP dose response (percentage of CD40L positive cells) (T cells (CD4 and CD8); CD4+, 2 μL virus OT-001671, TMP 0.1 μM): 14.9%
TMP dose response (percentage of CD40L positive cells) (T cells (CD4 and CD8); CD4+, 2 μL virus OT-001671, TMP 1 μM): 17.6%
TMP dose response (percentage of CD40L positive cells) (T cells (CD4 and CD8); CD4+, 2 μL virus OT-001671, TMP 10 μM): 30%
TMP dose response (percentage of CD40L positive cells) (T cells (CD4 and CD8); CD4+, 10 μL virus OT-001671, TMP 0.001 μM): 4.74%
TMP dose response (percentage of CD40L positive cells) (T cells (CD4 and CD8); CD4+, 10 μL virus OT-001671, TMP 0.01 μM): 6.79%
TMP dose response (percentage of CD40L positive cells) (T cells (CD4 and CD8); CD4+, 10 μL virus OT-001671, TMP 0.1 μM): 7.65%
TMP dose response (percentage of CD40L positive cells) (T cells (CD4 and CD8); CD4+, 10 μL virus OT-001671, TMP 1 μM): 17.2%
TMP dose response (percentage of CD40L positive cells) (T cells (CD4 and CD8); CD4+, 10 μL virus OT-001671, TMP 10 μM): 43.7%
TMP dose response (percentage of CD40L positive cells) (T cells (CD4 and CD8); CD8+, 0.5 μL virus OT-001671, TMP 0.001 μM): 0.59%
TMP dose response (percentage of CD40L positive cells) (T cells (CD4 and CD8); CD8+, 0.5 μL virus OT-001671, TMP 0.01 μM): 0.56%
TMP dose response (percentage of CD40L positive cells) (T cells (CD4 and CD8); CD8+, 0.5 μL virus OT-001671, TMP 0.1 μM): 0.45%
TMP dose response (percentage of CD40L positive cells) (T cells (CD4 and CD8); CD8+, 0.5 μL virus OT-001671, TMP 1 μM): 0.43%
TMP dose response (percentage of CD40L positive cells) (T cells (CD4 and CD8); CD8+, 0.5 μL virus OT-001671, TMP 10 μM): 2.44%
TMP dose response (percentage of CD40L positive cells) (T cells (CD4 and CD8); CD8+, 2 μL virus OT-001671, TMP 0.001 μM): 0.6%
TMP dose response (percentage of CD40L positive cells) (T cells (CD4 and CD8); CD8+, 2 μL virus OT-001671, TMP 0.01 μM): 0.59%
TMP dose response (percentage of CD40L positive cells) (T cells (CD4 and CD8); CD8+, 2 μL virus OT-001671, TMP 0.1 μM): 0.88%
TMP dose response (percentage of CD40L positive cells) (T cells (CD4 and CD8); CD8+, 2 μL virus OT-001671, TMP 1 μM): 1.29%
TMP dose response (percentage of CD40L positive cells) (T cells (CD4 and CD8); CD8+, 2 μL virus OT-001671, TMP 10 μM): 5.57%
TMP dose response (percentage of CD40L positive cells) (T cells (CD4 and CD8); CD8+, 10 μL virus OT-001671, TMP 0.001 μM): 1.18%
TMP dose response (percentage of CD40L positive cells) (T cells (CD4 and CD8); CD8+, 10 μL virus OT-001671, TMP 0.01 μM): 0.89%
TMP dose response (percentage of CD40L positive cells) (T cells (CD4 and CD8); CD8+, 10 μL virus OT-001671, TMP 0.1 μM): 0.95%
TMP dose response (percentage of CD40L positive cells) (T cells (CD4 and CD8); CD8+, 10 μL virus OT-001671, TMP 1 μM): 2.87%
TMP dose response (percentage of CD40L positive cells) (T cells (CD4 and CD8); CD8+, 10 μL virus OT-001671, TMP 10 μM): 12.4%

B1: OT-001965: ER regulated CD40L construct with varied linker length (protein)
chain: MSLALSLTADQMVSALLDAEPPILYSEYDPTRPFSEASMMGLLTNLADRELVHMINWAKRVPGFVDLTLHDQVHLLECAWMEILMIGLVWRSMEHPGKLLFAPNLLLDRDQGKCVEGGVEIFDMLLATSSRFRMMNLQGEEFVCLKSIILLNSGVYTFLSSTLKSLEEKDHIHRVLDKITDTLIHLMAKAGLTLQQQHQRLAQLLLILSHIRHMSNKRMEHLYSMKCKNVVPLSDLLLEMLDAHRLGSGMIETYNQTSPRSAATGLPISMKIFMYLLTVFLITQMIGSALFAVYLHRRLDKIEDERNLHEDFVFMKTIQRCNTGERSLSLLNCEEIKSQFEGFVKDIMLNKEETKKENSFEMQKGDQNPQIAAHVISEASSKTTSVLQWAEKGYYTMSNNLVTLENGKQLTVKRQGLYYIYAQVTFCSNREASSQAPFIASLCLKSPGRFERILLRAANTHSSAKPCGQQSIHLGGVFELQPGASVFVNVTDPSQVSHGTGFTSFGLLKL
Percent of Jurkat cells expressing CD40L (Jurkat cells [2]; 1 μM Bazedoxifene): 27%
SR (Jurkat cells [2]; 1 μM Bazedoxifene versus DMSO, % CD40L positive Jurkat cells): 9
Percent of Jurkat cells expressing CD40L (Jurkat cells [2]; DMSO): 3%
